How the values were obtained:
[1] = molecular target: T1, neurotensin receptor 1 (NTR1) (Homo sapiens, UniProt P30989); test: […]-NT radioligand binding to NTR1-U2OS membranes
[2] = molecular target: T1, neurotensin receptor 1 (NTR1); test: […]-NT radioligand competitive displacement in NTR1-U2OS membranes; format: binding

T1 sequence (P30989 whole entry): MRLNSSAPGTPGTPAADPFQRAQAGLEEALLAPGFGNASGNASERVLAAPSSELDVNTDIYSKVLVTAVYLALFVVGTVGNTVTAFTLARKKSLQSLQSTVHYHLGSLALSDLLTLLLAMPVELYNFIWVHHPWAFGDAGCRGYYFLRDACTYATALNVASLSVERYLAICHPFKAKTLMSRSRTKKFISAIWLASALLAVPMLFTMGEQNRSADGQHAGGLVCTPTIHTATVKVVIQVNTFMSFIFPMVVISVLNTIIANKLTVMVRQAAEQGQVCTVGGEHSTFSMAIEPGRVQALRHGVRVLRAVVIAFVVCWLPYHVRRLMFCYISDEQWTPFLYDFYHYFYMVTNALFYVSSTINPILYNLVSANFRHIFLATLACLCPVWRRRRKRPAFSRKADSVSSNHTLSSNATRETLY

Structure (SMILES) | EC50 [1] | IC50 [2]
COc1cc2nc(C3CC3)nc(N3CCN(c4ccccc4OC)CC3)c2cc1OC [ML314] | 316 nM | 
COc1cccc(OC)c1-c1nc(C(=O)N[C@@H](CC(C)C)C(=O)O)cn1-c1ccnc2cc(Cl)ccc12 [ML301] |  | -4.0 Log(IC50)

From paper PMC4947017 (ACS chemical biology, 2016)
